Results from patent US20060069132A1, “Azolecarboxamide herbicides” (priority 2004, published 2006).
Like-named read-outs stand apart in the source and are kept apart here.

Tests used:
Surinam grass = assay: Test B pre-/postemergence herbicide test; type: in vivo, Urochloa decumbens; conditions: Urochloa decumbens; for pest or weed control at 125 g/ha: 125 g ai/ha
Procedure, shortened: (§1)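 Response was scored visually 13 to 15 days after treatment against untreated greenhouse controls, 0 meaning no effect and 100 complete control. Formulations (solvent mixture plus surfactant) went onto soil after planting, onto foliage of 1- to 4-leaf plants, and onto 2-leaf plants in a flooded paddy set including rice and barnyardgrass.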

large crabgrass [1] = assay: Test B pre-/postemergence herbicide test; type: in vivo, Digitaria sanguinalis; conditions: Digitaria sanguinalis; for pest or weed control at 500 g/ha: 500 g ai/ha; for pest or weed control at 125 g/ha: 125 g ai/ha
Procedure, shortened: as §1

cocklebur = assay: Test C pre-/postemergence herbicide test; type: in vivo, Xanthium strumarium; conditions: for pest or weed control at 250 g/ha: 250 g ai/ha; for pest or weed control at 125 g/ha: 125 g ai/ha
Procedure, shortened: (§2)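 Greenhouse-grown plants were evaluated visually 12 to 14 days after treatment, with 100 meaning complete control and 0 no effect. Application was preemergence, or postemergence at 2 to 18 cm.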

large crabgrass [2] = assay: Test C pre-/postemergence herbicide test; type: in vivo, Digitaria sanguinalis; conditions: for pest or weed control at 250 g/ha: 250 g ai/ha
Procedure, shortened: as §2

johnsongrass = assay: Test C pre-/postemergence herbicide test; type: in vivo, Sorghum halepense; conditions: for pest or weed control at 125 g/ha: 125 g ai/ha
Procedure, shortened: as §2

morningglory = assay: Test C pre-/postemergence herbicide test; type: in vivo, Ipomoea coccinea
Procedure, shortened: as §2

eastern black nightshade = assay: Test C pre-/postemergence herbicide test; type: in vivo, Solanum ptycanthum
Procedure, shortened: as §2

yellow nutsedge = assay: Test C pre-/postemergence herbicide test; type: in vivo, Cyperus esculentus; conditions: for pest or weed control at 125 g/ha: 125 g ai/ha
Procedure, shortened: as §2

barnyardgrass = assay: Test C flooded paddy test; type: in vivo, Echinochloa crus-galli; conditions: Echinochloa crus-galli
Procedure, shortened: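 Greenhouse test with a 12–14 day hold after application and visual comparison with controls. Emerged plants were 1- to 4-leaf stage (2–18 cm) when sprayed postemergence, and the paddy barnyardgrass was at 2 leaves under flooded conditions. 100 = complete control.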

CCOC(=O)c1cccc(NC(=O)c2cc(C(C)(C)C)nn2CC)c1 [Compound 80, ethyl 3-[[[3-(1,1-dimethylethyl)-1-ethyl-1H-pyrazol-5-yl]carbonyl]-amino]benzoate]
pest or weed control at 500 g/ha (Surinam grass; post-emergence, Postemergence, 500 g ai/ha, visual rating after 13 to 15 days, scale 0 (no effect) to 100 (complete control), read-out: Plant response rating, Surinam Grass): 90%
pest or weed control at 125 g/ha (Surinam grass; post-emergence, postemergence, visual rating, scale 0 (no effect) to 100 (complete control), read-out: Surinam Grass plant response rating): 90%
pest or weed control at 125 g/ha (Surinam grass; pre-emergence, preemergence, 0 to 100 scale, 0 is no effect, 100 is complete control, read-out: Plant response rating, Surinam Grass): 0%
pest or weed control at 500 g/ha (large crabgrass [1]; post-emergence, Postemergence, visual rating after 13 to 15 days, scale 0 (no effect) to 100 (complete control), read-out: Plant response rating, Crabgrass, Large): 100%
pest or weed control at 125 g/ha (large crabgrass [1]; post-emergence, postemergence, visual rating, scale 0 (no effect) to 100 (complete control), read-out: Crabgrass, Large plant response rating): 100%
pest or weed control at 500 g/ha (large crabgrass [1]; pre-emergence, Preemergence, scale 0 to 100, read-out: Crabgrass, Large plant response rating): 0%
pest or weed control at 125 g/ha (large crabgrass [1]; pre-emergence, preemergence, 0 to 100 scale, 0 is no effect, 100 is complete control, read-out: Plant response rating, Crabgrass, Large): 0%
Plant response rating (0 = no effect, 100 = complete control), Cocklebur (cocklebur; 62 g ai/ha, preemergence): 0
pest or weed control at 250 g/ha (cocklebur; Xanthium strumarium, post-emergence, 312 h, Postemergence, scale 0 to 100, 0 no effect, 100 complete control, read-out: Plant response rating, Cocklebur): 100%
pest or weed control at 125 g/ha (cocklebur; Xanthium strumarium, post-emergence, 312 h, postemergence, scale 0 to 100, read-out: Plant response rating, Cocklebur): 90%
pest or weed control at 31 g/ha (cocklebur; Xanthium strumarium, post-emergence, 312 h, postemergence, 31 g ai/ha, scale 0 to 100, read-out: Plant response rating, Cocklebur): 70%
pest or weed control at 62 g/ha (cocklebur; Xanthium strumarium, post-emergence, 312 h, postemergence, 62 g ai/ha, scale 0 to 100, read-out: Plant response rating, Cocklebur): 90%
pest or weed control at 125 g/ha (cocklebur; Xanthium strumarium, pre-emergence, 312 h, scale 0 (no effect) to 100 (complete control), visual, 12 to 14 days, read-out: Plant response rating, Cocklebur): 10%
pest or weed control at 250 g/ha (cocklebur; Xanthium strumarium, pre-emergence, 312 h, scale 0 to 100 (0 no effect, 100 complete control), visual, 12 to 14 days, read-out: Plant response rating, Cocklebur): 10%
Plant response rating (0 = no effect, 100 = complete control), Crabgrass, Large (large crabgrass [2]; 62 g ai/ha, preemergence): 0
pest or weed control at 250 g/ha (large crabgrass [2]; Digitaria sanguinalis, post-emergence, 312 h, Postemergence, scale 0 to 100, 0 no effect, 100 complete control, read-out: Plant response rating, Crabgrass, Large): 90%
pest or weed control at 62 g/ha (large crabgrass [2]; Digitaria sanguinalis, post-emergence, 312 h, postemergence, 62 g ai/ha, scale 0 to 100, read-out: Plant response rating, Crabgrass, Large): 90%
pest or weed control at 31 g/ha (large crabgrass [2]; Digitaria sanguinalis, pre-emergence, 312 h, 31 g ai/ha, preemergence, scale 0 to 100, read-out: Plant response rating, Crabgrass, Large): 0%
pest or weed control at 125 g/ha (large crabgrass [2]; Digitaria sanguinalis, pre-emergence, 312 h, 125 g ai/ha, scale 0 (no effect) to 100 (complete control), visual, 12 to 14 days, read-out: Plant response rating, Crabgrass, Large): 10%
pest or weed control at 250 g/ha (large crabgrass [2]; Digitaria sanguinalis, pre-emergence, 312 h, scale 0 to 100 (0 no effect, 100 complete control), visual, 12 to 14 days, read-out: Plant response rating, Crabgrass, Large): 10%
Plant response rating (0 = no effect, 100 = complete control), Johnsongrass (johnsongrass; 62 g ai/ha, preemergence): 10
pest or weed control at 250 g/ha (johnsongrass; Sorghum halepense, post-emergence, Postemergence, 250 g ai/ha, scale 0 to 100, 0 no effect, 100 complete control, read-out: Plant response rating, Johnsongrass): 90%
pest or weed control at 125 g/ha (johnsongrass; Sorghum halepense, post-emergence, postemergence, scale 0 to 100, read-out: Plant response rating, Johnsongrass): 90%
pest or weed control at 62 g/ha (johnsongrass; Sorghum halepense, post-emergence, postemergence, 62 g ai/ha, scale 0 to 100, read-out: Plant response rating, Johnsongrass): 80%
pest or weed control at 31 g/ha (johnsongrass; Sorghum halepense, pre-emergence, 31 g ai/ha, preemergence, scale 0 to 100, read-out: Plant response rating, Johnsongrass): 0%
pest or weed control at 125 g/ha (johnsongrass; Sorghum halepense, pre-emergence, scale 0 (no effect) to 100 (complete control), visual, 12 to 14 days, read-out: Plant response rating, Johnsongrass): 10%
Plant response rating (0 = no effect, 100 = complete control), Morningglory (morningglory; 62 g ai/ha, preemergence): 20
pest or weed control at 250 g/ha (morningglory; Ipomoea, post-emergence, Postemergence, 250 g ai/ha, scale 0 to 100, 0 no effect, 100 complete control, read-out: Plant response rating, Morningglory): 90%
pest or weed control at 125 g/ha (morningglory; Ipomoea, post-emergence, postemergence, 125 g ai/ha, scale 0 to 100, read-out: Plant response rating, Morningglory): 90%
pest or weed control at 62 g/ha (morningglory; Ipomoea, post-emergence, postemergence, 62 g ai/ha, scale 0 to 100, read-out: Plant response rating, Morningglory): 90%
pest or weed control at 31 g/ha (morningglory; Ipomoea, pre-emergence, 31 g ai/ha, preemergence, scale 0 to 100, read-out: Plant response rating, Morningglory): 0%
Plant response rating (0 = no effect, 100 = complete control), Nightshade (eastern black nightshade; 62 g ai/ha, preemergence): 10
pest or weed control at 31 g/ha (eastern black nightshade; pre-emergence, 31 g ai/ha, preemergence, scale 0 to 100, read-out: Plant response rating, Nightshade): 0%
pest or weed control at 125 g/ha (eastern black nightshade; pre-emergence, 125 g ai/ha, scale 0 (no effect) to 100 (complete control), visual, 12 to 14 days, read-out: Plant response rating, Nightshade): 10%
Plant response rating (0 = no effect, 100 = complete control), Nutsedge, Yellow (yellow nutsedge; 62 g ai/ha, preemergence): 0
pest or weed control at 250 g/ha (yellow nutsedge; Cyperus, post-emergence, Postemergence, 250 g ai/ha, scale 0 to 100, 0 no effect, 100 complete control, read-out: Plant response rating, Nutsedge, Yellow): 40%
pest or weed control at 125 g/ha (yellow nutsedge; Cyperus, post-emergence, postemergence, scale 0 to 100, read-out: Plant response rating, Nutsedge, Yellow): 40%
pest or weed control at 62 g/ha (yellow nutsedge; Cyperus, post-emergence, postemergence, 62 g ai/ha, scale 0 to 100, read-out: Plant response rating, Nutsedge, Yellow): 40%
pest or weed control at 31 g/ha (yellow nutsedge; Cyperus, pre-emergence, 31 g ai/ha, preemergence, scale 0 to 100, read-out: Plant response rating, Nutsedge, Yellow): 0%
pest or weed control at 125 g/ha (yellow nutsedge; Cyperus, pre-emergence, scale 0 (no effect) to 100 (complete control), visual, 12 to 14 days, read-out: Plant response rating, Nutsedge, Yellow): 0%
pest or weed control at 62 g/ha (barnyardgrass; 62 g ai/ha, scale 0 to 100 (0 no effect, 100 complete control), read-out: Barnyardgrass plant response rating): 0%
pest or weed control at 125 g/ha (barnyardgrass; 125 g ai/ha, scale of 0 to 100, 0 is no effect, 100 is complete control, read-out: Barnyardgrass plant response rating): 20%
pest or weed control at 250 g/ha (barnyardgrass; 250 g ai/ha, scale of 0 to 100, 0 is no effect, 100 is complete control, read-out: Barnyardgrass plant response rating): 40%
pest or weed control at 500 g/ha (barnyardgrass; 500 g ai/ha, visual rating after 12 to 14 days, scale 0 to 100 (0 no effect, 100 complete control), read-out: Plant response rating, Barnyardgrass): 60%
